Results taken from ChEMBL document CHEMBL4507288 (2021).

How the values were obtained:
[1] = tested on: Tyrosine-protein kinase ABL1 (Homo sapiens), P00519 [H396P]; settings: Compound concentration 1000.0 nM
[2] = target: Tyrosine-protein kinase ABL1 (Homo sapiens) (UniProt P00519); settings: Compound concentration 1000.0 nM
[3] = target: Tyrosine-protein kinase ABL1 (Homo sapiens) (UniProt P00519); settings: Compound concentration 1000.0 nM; remark: listed apart in the source
[4] = target: Activin receptor type-1 (Homo sapiens) (UniProt Q04771); settings: Compound concentration 1000.0 nM
[5] = target: Bone morphogenetic protein receptor type-2 (Homo sapiens) (UniProt Q13873); settings: Compound concentration 1000.0 nM
[6] = target: Serine/threonine-protein kinase B-raf (Homo sapiens) (UniProt P15056); settings: Compound concentration 1000.0 nM
[7] = target: Cyclin-dependent kinase 2 (Homo sapiens) (UniProt P24941); settings: Compound concentration 1000.0 nM
[8] = target: Cyclin-dependent kinase-like 5 (Homo sapiens) (UniProt O76039); settings: Compound concentration 1000.0 nM
[9] = target: Citron Rho-interacting kinase (Homo sapiens) (UniProt O14578); settings: Compound concentration 1000.0 nM
[10] = target: Dual specificity protein kinase CLK2 (Homo sapiens) (UniProt P49760); settings: Compound concentration 1000.0 nM
[11] = target: Macrophage colony-stimulating factor 1 receptor (Homo sapiens) (UniProt P07333); settings: Compound concentration 1000.0 nM
[12] = target: Death-associated protein kinase 1 (Homo sapiens) (UniProt P53355); settings: Compound concentration 1000.0 nM
[13] = target: Discoidin domain-containing receptor 2 (Homo sapiens) (UniProt Q16832); settings: Compound concentration 1000.0 nM
[14] = target: Ephrin type-A receptor 5 (Homo sapiens) (UniProt P54756); settings: Compound concentration 1000.0 nM
[15] = target: Mitogen-activated protein kinase 1 (Homo sapiens) (UniProt P28482); settings: Compound concentration 1000.0 nM
[16] = tested on: Receptor-type tyrosine-protein kinase FLT3 (Homo sapiens), P36888 [UNDEFINED MUTATION]; settings: Compound concentration 1000.0 nM
[17] = target: Tyrosine-protein kinase Fyn (Homo sapiens) (UniProt P06241); settings: Compound concentration 1000.0 nM
[18] = tested on: eIF-2-alpha kinase GCN2 (Homo sapiens), Q9P2K8 [S808G]; settings: Compound concentration 1000.0 nM
[19] = target: Tyrosine-protein kinase JAK3 (Homo sapiens) (UniProt P52333); settings: Compound concentration 1000.0 nM
[20] = target: Mitogen-activated protein kinase 9 (Homo sapiens) (UniProt P45984); settings: Compound concentration 1000.0 nM
[21] = tested on: Mast/stem cell growth factor receptor Kit (Homo sapiens), P10721 [V559D]; settings: Compound concentration 1000.0 nM
[22] = target: LIM domain kinase 1 (Homo sapiens) (UniProt P53667); settings: Compound concentration 1000.0 nM
[23] = target: Dual specificity mitogen-activated protein kinase kinase 2 (Homo sapiens) (UniProt P36507); settings: Compound concentration 1000.0 nM
[24] = target: Misshapen-like kinase 1 (Homo sapiens) (UniProt Q8N4C8); settings: Compound concentration 1000.0 nM
[25] = target: MAP kinase-interacting serine/threonine-protein kinase 1 (Homo sapiens) (UniProt Q9BUB5); settings: Compound concentration 1000.0 nM
[26] = target: Myosin-IIIb (Homo sapiens) (UniProt Q8WXR4); settings: Compound concentration 1000.0 nM
[27] = target: Serine/threonine-protein kinase Nek1 (Homo sapiens) (UniProt Q96PY6); settings: Compound concentration 1000.0 nM
[28] = target: Serine/threonine-protein kinase PAK 1 (Homo sapiens) (UniProt Q13153); settings: Compound concentration 1000.0 nM
[29] = tested on: Phosphatidylinositol 4,5-bisphosphate 3-kinase catalytic subunit alpha isoform (Homo sapiens), P42336 [I800L]; settings: Compound concentration 1000.0 nM
[30] = target: Serine/threonine-protein kinase PknB (Mycobacterium tuberculosis) (UniProt P9WI81); settings: Compound concentration 1000.0 nM
[31] = target: Serine/threonine-protein kinase PLK1 (Homo sapiens) (UniProt P53350); settings: Compound concentration 1000.0 nM
[32] = target: Protein kinase C theta type (Homo sapiens) (UniProt Q04759); settings: Compound concentration 1000.0 nM
[33] = target: Serine/threonine-protein kinase D1 (Homo sapiens) (UniProt Q15139); settings: Compound concentration 1000.0 nM
[34] = target: Proto-oncogene tyrosine-protein kinase receptor Ret (Homo sapiens) (UniProt P07949); settings: Compound concentration 1000.0 nM
[35] = tested on: Proto-oncogene tyrosine-protein kinase receptor Ret (Homo sapiens), P07949 [M918T]; settings: Compound concentration 1000.0 nM
[36] = target: Rho-associated protein kinase 2 (Homo sapiens) (UniProt O75116); settings: Compound concentration 1000.0 nM
[37] = target: Proto-oncogene tyrosine-protein kinase Src (Homo sapiens) (UniProt P12931); settings: Compound concentration 1000.0 nM
[38] = target: TRAF2 and NCK-interacting protein kinase (Homo sapiens) (UniProt Q9UKE5); settings: Compound concentration 1000.0 nM
[39] = target: Phosphatidylinositol 3-kinase catalytic subunit type 3 (Homo sapiens) (UniProt Q8NEB9); settings: Compound concentration 1000.0 nM
[40] = target: 5-hydroxytryptamine receptor 1E (Homo sapiens) (UniProt P28566); settings: Compound concentration 10.0 uM
Rattus norvegicus = species: Rattus norvegicus; settings: Compound concentration 10.0 uM
[41] = target: 5-hydroxytryptamine receptor 2C (Homo sapiens, UniProt P28335); assay: GPCRScan assay: inhibition of 5-HT2C; parameters: radioligand conc. used [nm] 1.0 – 2.5, parental cells HEK T
D(2) dopamine receptor = D(2) dopamine receptor (Homo sapiens, UniProt P14416); assay: GPCRScan assay: inhibition of D2; parameters: radioligand conc. used [nm] 0.4 – 1.0, parental cells stable fibroblast
[42] = target: Kappa-type opioid receptor (Homo sapiens, UniProt P41145); assay: GPCRScan assay: inhibition of KOR; parameters: radioligand conc. used [nm] 0.6 – 1.2, parental cells stable HEK
[43] = target: Beta-1 adrenergic receptor (Homo sapiens) (UniProt P08588); settings: Compound concentration 10.0 uM

Kappa-type opioid receptor, sequence (P41145 whole entry): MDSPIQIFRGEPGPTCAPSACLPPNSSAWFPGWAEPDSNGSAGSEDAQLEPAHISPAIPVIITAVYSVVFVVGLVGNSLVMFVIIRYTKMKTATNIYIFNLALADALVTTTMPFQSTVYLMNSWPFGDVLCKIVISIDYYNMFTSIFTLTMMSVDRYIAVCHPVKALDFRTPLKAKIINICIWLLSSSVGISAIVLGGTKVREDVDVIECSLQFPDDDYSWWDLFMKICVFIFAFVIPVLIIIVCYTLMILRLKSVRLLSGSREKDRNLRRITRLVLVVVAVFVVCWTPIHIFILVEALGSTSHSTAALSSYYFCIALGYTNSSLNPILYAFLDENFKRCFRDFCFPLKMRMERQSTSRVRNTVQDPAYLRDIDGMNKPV
eIF-2-alpha kinase GCN2 (Homo sapiens), Q9P2K8 [S808G], sequence (Q9P2K8 whole entry S808G): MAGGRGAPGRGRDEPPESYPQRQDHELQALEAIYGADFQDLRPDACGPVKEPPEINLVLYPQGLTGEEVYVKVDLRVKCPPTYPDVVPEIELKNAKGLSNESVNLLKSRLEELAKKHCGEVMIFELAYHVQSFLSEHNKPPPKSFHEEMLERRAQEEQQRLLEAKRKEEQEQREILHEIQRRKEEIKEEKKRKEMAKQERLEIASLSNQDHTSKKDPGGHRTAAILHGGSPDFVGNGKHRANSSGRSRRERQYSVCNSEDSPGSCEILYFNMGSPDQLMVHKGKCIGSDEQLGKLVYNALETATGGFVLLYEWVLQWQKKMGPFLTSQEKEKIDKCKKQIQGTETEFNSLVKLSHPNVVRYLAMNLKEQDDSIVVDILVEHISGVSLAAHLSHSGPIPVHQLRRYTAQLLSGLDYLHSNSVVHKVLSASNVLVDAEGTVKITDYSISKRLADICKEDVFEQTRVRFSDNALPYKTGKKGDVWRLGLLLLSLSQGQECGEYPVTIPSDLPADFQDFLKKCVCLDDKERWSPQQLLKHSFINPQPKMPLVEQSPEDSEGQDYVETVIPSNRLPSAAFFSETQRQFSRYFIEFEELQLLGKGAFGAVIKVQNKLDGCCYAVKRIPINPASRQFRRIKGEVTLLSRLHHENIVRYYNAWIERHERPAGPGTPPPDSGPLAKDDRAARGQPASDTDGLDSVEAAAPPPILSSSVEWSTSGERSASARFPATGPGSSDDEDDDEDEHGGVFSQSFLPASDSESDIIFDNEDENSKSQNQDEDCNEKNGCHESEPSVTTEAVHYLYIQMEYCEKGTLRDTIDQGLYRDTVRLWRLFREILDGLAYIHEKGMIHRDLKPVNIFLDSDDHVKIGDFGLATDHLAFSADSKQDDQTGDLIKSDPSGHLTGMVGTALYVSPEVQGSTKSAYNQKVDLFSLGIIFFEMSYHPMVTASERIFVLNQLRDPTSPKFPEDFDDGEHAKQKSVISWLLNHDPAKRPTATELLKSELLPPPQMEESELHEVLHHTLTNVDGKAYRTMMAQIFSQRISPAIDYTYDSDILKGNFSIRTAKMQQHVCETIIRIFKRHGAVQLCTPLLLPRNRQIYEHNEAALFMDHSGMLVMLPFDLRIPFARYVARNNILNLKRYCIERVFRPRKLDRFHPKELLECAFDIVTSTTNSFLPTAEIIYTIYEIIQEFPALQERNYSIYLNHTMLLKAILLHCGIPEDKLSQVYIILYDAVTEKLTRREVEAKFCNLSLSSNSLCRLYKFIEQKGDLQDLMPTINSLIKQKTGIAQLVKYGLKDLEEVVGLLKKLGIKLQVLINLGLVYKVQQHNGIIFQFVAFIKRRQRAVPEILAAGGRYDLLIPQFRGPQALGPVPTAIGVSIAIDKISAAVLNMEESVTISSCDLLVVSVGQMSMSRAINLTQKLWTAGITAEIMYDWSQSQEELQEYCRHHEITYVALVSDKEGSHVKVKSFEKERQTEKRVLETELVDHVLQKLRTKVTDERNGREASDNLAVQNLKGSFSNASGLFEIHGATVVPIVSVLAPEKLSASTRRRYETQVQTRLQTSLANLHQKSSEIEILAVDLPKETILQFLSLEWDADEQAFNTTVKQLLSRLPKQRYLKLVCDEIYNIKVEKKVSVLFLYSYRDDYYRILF
Rho-associated protein kinase 2 (Homo sapiens), sequence (O75116 whole entry, looked up): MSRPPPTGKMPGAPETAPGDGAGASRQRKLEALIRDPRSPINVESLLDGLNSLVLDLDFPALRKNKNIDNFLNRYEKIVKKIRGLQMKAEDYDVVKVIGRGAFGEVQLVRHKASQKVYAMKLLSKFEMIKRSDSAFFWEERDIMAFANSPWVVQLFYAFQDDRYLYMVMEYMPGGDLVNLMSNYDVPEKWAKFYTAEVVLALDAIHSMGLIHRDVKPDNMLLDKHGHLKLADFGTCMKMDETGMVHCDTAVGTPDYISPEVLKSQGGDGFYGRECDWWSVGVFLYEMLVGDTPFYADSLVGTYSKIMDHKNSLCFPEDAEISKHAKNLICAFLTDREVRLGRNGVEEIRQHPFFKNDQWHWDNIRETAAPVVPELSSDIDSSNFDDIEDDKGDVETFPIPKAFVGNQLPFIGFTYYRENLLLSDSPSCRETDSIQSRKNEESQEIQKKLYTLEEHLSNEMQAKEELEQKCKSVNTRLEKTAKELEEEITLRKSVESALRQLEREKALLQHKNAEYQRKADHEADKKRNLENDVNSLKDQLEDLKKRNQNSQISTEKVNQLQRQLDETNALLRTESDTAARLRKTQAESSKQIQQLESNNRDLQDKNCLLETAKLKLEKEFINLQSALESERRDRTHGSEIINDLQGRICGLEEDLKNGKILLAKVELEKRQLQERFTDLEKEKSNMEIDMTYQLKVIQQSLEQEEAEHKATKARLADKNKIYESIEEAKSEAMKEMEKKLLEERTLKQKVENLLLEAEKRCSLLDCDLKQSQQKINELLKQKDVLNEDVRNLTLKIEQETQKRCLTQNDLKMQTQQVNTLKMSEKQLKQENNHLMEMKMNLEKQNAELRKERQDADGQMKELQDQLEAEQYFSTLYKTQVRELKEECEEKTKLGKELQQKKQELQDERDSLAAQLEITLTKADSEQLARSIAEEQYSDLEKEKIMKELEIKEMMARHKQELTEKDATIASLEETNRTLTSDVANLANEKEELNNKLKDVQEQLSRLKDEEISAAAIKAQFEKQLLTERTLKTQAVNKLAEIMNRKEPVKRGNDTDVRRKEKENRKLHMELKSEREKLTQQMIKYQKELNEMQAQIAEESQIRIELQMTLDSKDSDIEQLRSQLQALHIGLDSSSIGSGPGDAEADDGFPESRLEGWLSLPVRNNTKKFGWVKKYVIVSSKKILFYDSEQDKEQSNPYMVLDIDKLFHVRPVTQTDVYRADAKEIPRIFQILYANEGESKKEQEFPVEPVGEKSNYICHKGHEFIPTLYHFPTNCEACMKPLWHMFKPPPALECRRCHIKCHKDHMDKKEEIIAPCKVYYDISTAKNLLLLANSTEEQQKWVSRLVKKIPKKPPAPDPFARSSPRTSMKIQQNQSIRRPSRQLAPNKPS
MAP kinase-interacting serine/threonine-protein kinase 1 (Homo sapiens), sequence (Q9BUB5 whole entry, looked up): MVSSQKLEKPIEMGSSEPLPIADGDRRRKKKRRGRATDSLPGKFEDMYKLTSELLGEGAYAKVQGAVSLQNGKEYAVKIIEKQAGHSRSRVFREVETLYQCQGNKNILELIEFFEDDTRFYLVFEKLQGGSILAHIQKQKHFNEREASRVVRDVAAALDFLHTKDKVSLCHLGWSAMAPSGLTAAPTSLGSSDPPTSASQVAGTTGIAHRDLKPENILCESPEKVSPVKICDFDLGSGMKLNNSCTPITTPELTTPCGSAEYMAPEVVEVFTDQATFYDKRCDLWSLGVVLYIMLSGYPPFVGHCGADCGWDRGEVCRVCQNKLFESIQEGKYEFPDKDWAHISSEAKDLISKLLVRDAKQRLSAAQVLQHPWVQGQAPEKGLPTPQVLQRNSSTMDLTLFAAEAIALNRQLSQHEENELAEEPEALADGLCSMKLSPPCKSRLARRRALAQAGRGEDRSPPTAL
Serine/threonine-protein kinase PLK1 (Homo sapiens), sequence (P53350 whole entry): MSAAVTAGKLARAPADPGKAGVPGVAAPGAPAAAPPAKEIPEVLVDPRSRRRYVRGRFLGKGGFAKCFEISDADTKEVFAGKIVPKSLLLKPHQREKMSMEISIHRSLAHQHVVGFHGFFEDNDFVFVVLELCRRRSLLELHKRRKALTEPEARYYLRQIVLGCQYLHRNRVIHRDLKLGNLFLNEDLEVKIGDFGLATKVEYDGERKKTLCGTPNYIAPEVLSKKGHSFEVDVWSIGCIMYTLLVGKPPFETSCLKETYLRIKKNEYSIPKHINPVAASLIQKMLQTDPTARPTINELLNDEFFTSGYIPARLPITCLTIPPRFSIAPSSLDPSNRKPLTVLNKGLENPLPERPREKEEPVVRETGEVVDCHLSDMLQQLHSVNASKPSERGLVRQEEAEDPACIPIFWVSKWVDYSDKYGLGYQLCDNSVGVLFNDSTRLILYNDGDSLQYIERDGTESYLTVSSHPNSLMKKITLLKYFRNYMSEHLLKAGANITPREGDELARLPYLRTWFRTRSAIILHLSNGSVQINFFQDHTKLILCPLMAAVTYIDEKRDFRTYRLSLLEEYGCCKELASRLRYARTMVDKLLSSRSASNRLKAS
Tyrosine-protein kinase Fyn (Homo sapiens), sequence (P06241 2-537 limits assumed): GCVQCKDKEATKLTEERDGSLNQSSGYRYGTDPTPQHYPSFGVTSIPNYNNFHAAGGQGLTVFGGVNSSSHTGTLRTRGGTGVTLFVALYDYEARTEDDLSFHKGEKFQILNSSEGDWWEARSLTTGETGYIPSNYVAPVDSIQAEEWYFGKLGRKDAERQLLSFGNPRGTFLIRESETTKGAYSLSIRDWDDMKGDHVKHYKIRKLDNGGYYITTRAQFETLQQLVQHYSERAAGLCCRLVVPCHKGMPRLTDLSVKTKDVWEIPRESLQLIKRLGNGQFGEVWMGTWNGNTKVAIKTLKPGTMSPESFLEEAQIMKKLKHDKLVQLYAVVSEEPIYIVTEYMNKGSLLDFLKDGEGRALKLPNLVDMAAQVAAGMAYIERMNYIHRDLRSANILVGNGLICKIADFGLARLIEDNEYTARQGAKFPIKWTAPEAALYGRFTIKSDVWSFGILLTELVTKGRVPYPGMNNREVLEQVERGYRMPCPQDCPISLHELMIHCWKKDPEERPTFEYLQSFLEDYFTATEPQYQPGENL

## O=S(=O)(NC1CCC(c2cc(F)ccc2F)(S(=O)(=O)c2ccc(Cl)cc2)CC1)C(F)(F)F (stereo unspecified) [MRK-560]
[1]
  residual activity: 100%
[2]
  residual activity: 88%
[3]
  residual activity: 87%
[4]
  residual activity: 92%
[5]
  residual activity: 100%
[6]
  residual activity: 93%
[7]
  residual activity: 100%
[8]
  residual activity: 87%
[9]
  residual activity: 0%
[10]
  residual activity: 100%
[11]
  residual activity: 100%
[12]
  residual activity: 95%
[13]
  residual activity: 100%
[14]
  residual activity: 100%
[15]
  residual activity: 100%
[16]
  residual activity: 100%
[17]
  residual activity: 85%
[18]
  residual activity: 100%
[19]
  residual activity: 100%
[20]
  residual activity: 73%
[21]
  residual activity: 95%
[22]
  residual activity: 86%
[23]
  residual activity: 100%
[24]
  residual activity: 100%
[25]
  residual activity: 93%
[26]
  residual activity: 100%
[27]
  residual activity: 100%
[28]
  residual activity: 93%
[29]
  residual activity: 98%
[30]
  residual activity: 91%
[31]
  residual activity: 100%
[32]
  residual activity: 100%
[33]
  residual activity: 100%
[34]
  residual activity: 92%
[35]
  residual activity: 92%
[36]
  residual activity: 100%
[37]
  residual activity: 100%
[38]
  residual activity: 82%
[39]
  residual activity: 100%
[40]
  inhibition: -8.31%
Rattus norvegicus
  inhibition: 37.2%

## CC(C)(C)OC(=O)N1CCCC1CNC1CCC(c2cc(F)ccc2F)(S(=O)(=O)c2ccc(Cl)cc2)CC1 (stereo unspecified) [GSI-NC]
[41]
  Ki: 516 nM
D(2) dopamine receptor
  Ki: 1220 nM
[42]; read-out: Ki
  Ki: 3300 nM
[42]; read-out: pKi (converted)
  Ki: 3310 nM
[43]
  inhibition: 3.61%
